Laboratory results from PMC8273893 (Journal of Medicinal Chemistry, 2021).

Legend:
[1] = Parallel artificial membrane permeability assay; type: in vitro ADME; conditions: 500 μM in donor, 20 h
Plasma stability = type: in vitro ADME; conditions: 5 μM, 50% human plasma in PBS, 1 h, 37 °C

| SMILES | PAMPA (% flux) [1] [% flux] | plasma stability (% remaining) (Plasma stability) |
| --- | --- | --- |
| O=C(O)c1ccc(OCc2c(-c3c(Cl)cccc3C(F)(F)F)noc2-c2cc[nH]c2)cc1 [Compound 3, 4-((3-(2-Chloro-6-(trifluoromethyl)phenyl)-5-(1H-pyrrol-3-yl)isoxazol-4-yl)methoxy) Benzoic Acid] | 40.9 | 74.2 |
| O=C(O)c1ccc(NCc2c(-c3c(Cl)cccc3C(F)(F)F)noc2-c2cc[nH]c2)cc1 [Compound 2, 4-(((3-(2-Chloro-6-(trifluoromethyl)phenyl)-5-(1H-pyrrol-3-yl)isoxazol-4-yl)methyl)amino) Benzoic Acid] | 36.1 | 79.1 |
| O=C(O)c1ccc(-c2nn(C(=O)c3c(Cl)cccc3C(F)(F)F)c3ccccc23)cc1 [Compound 1, reference compound] | 29.7 | 95.5 |
| O=C(O)c1ccc(OCc2c(-c3c(Cl)cccc3C(F)(F)F)noc2-c2cc[nH]c2)cc1F [Compound 9, 4-((3-(2-Chloro-6-(trifluoromethyl)phenyl)-5-(1H-pyrrol-3-yl)isoxazol-4-yl)methoxy)-2-fluorobenzoic Acid] | 37.3 | 97.1 |
| O=C(O)c1ccc(OCc2c(-c3c(Cl)cccc3C(F)(F)F)noc2-c2ccc[nH]2)cc1 [Compound 10, 4-((3-(2-Chloro-6-(trifluoromethyl)phenyl)-5-(1H-pyrrol-2-yl)isoxazol-4-yl)methoxy) Benzoic Acid] | 50.5 | 89.5 |
| O=C(O)c1ccc(/C=C/c2c(-c3c(Cl)cccc3C(F)(F)F)noc2-c2cc[nH]c2)cc1 [Compound 6, (E)-4-(2-(3-(2-Chloro-6-(trifluoromethyl)phenyl)-5-(1H-pyrrol-3-yl)isoxazol-4-yl)vinyl) Benzoic Acid] | 40.3 | 59.5 |
| O=C(O)c1ccc(OCc2c(-c3c(Cl)cccc3C(F)(F)F)noc2-c2cn[nH]c2)cc1 [Compound 11, 4-((3-(2-Chloro-6-(trifluoromethyl)phenyl)-5-(1H-pyrazol-4-yl)isoxazol-4-yl)methoxy) Benzoic Acid] | 23.0 | 100 |
